Source: patent publication US7378446B2, “Compound having anti-HCV activity and process for producing the same” (Chugai Seiyaku Kabushiki Kaisha, priority 2003, dated 2008)

Key:
[1] = test system: Firefly luciferase HCV replicon cells (3-1); test: Replicon assay (firefly luciferase HCV replicon); type: cell-based; conditions: Hepatitis C virus, 72 h; Huh7-derived luciferase HCV replicon cells, 3 days culture with compound, Steady-Glo luminescence
Protocol: (§1) A construct was prepared in which a luciferase gene derived from firefly was introduced as a reporter gene in HCV-RNA to assay the number of copies of HCV-RNA. The luciferase gene was introduced in the form of fusing with neomycin-resistance gene directly below the IRES (Internal Ribosome Entry Site) of the HCV gene in accordance with the method of Krieger, et al. (J. Virol. 75:4614). After synthesizing this RNA in vitro, it was introduced into Huh7 cell by electroporation and isolated as G418-resistant clone. Firefly luciferase HCV replicon cells (3-1) were suspended in Dulbecco's MEM (Gibco cat. no. 10569-010) containing 5% fetal bovine serum (Hyclone cat. no. SH30071.03), inoculated into the wells of a 96-well plate at 5000 cells/well and then cultured overnight at 37° C. and 5% CO2. Approximately 20 hours later, the diluted test compound was added at 10 μl per well followed by culturing for another 3 days. Two series of assay plates were prepared, and the assay was carried out using a white plate for one series and a clear plate for the other series. Following completion of culturing, the white plate was used for the Steady-Glo Luciferase Assay System (Promega cat. no. E2520). Namely, after adding 100 μl of reagent per well, mixing by a pipette 3 to 4 times and then allowing to stand for 5 minutes, luminescence was measured with the 1450 MicroBeta TRILUX (Wallac). Values obtained in the absence of cell addition were used as background values and subtracted from all values to calculate the IC50 (50% inhibitory concentration) of the drug based on a value of 0% inhibition for the value in the absence of addition of test compound.

in vitro = type: cell-based; conditions: human; replicon cells, 3 days culture with compound, Cell Counting Kit 8, absorbance 450 nm; read-out: Cytotoxicity CC50
Protocol: as §1
The Cell Counting Kit 8 (Dojindo cat. no. CK04) was used to determine the cytotoxicity. Namely, 10 μl of Cell Counting Kit 8 were added to a clear plate and incubated for 30 to 60 minutes at 37° C. Absorbance at a wavelength of 450 nm and a control wavelength of 630 nm was measured with a 96-well plate reader. Values in the absence of cell addition were used as background values and subtracted from all values to calculate the CC50 (50% cell inhibitory concentration) of the drug based on a value of 0% inhibition for the value in the absence of addition of drug.

Compound	IC50 [1] [nM]	CC50 (in vitro) [nM]
CCCCCCCC(=O)CCCCCC/C=C/[C@H](C(=O)N[C@@H](Cc1ccc(Oc2ccccc2)cc1)C(=O)O)[C@@](O)(CC(=O)O)C(=O)O [Compound 15]	2	> 5000
CCCCCCCC(=O)CCCCCC/C=C/[C@H](C(=O)N[C@@H](Cc1ccc(C)cc1)C(=O)O)[C@@](O)(CC(=O)O)C(=O)O [Compound 16]	10	> 5000
CCCCCCCC(=O)CCCCCC/C=C/[C@H](C(=O)N[C@@H](Cc1ccc(OCc2ccccc2)cc1)C(=O)O)[C@@](O)(CC(=O)O)C(=O)O [Compound 17]	< 1	> 5000
CC#CCOc1ccc(C[C@H](NC(=O)[C@@H](/C=C/CCCCCCC(=O)CCCCCCC)[C@@](O)(CC(=O)O)C(=O)O)C(=O)O)cc1 [Compound 18]	1	> 5000
CCCCCCCC(=O)CCCCCC/C=C/[C@H](C(=O)N[C@@H](Cc1ccc(-c2ccccc2)cc1)C(=O)O)[C@@](O)(CC(=O)O)C(=O)O [Compound 19]	2	> 5000
CCCCCCCC(=O)CCCCCC/C=C/[C@H](C(=O)N[C@@H](Cc1ccc2ccccc2c1)C(=O)O)[C@@](O)(CC(=O)O)C(=O)O [Compound 20]	7	> 5000
CCCCCCCC(=O)CCCCCC/C=C/[C@H](C(=O)N[C@@H](Cc1ccc(OC2CCCCC2)cc1)C(=O)O)[C@@](O)(CC(=O)O)C(=O)O [Compound 21]	4	> 1000
CCCCCCCC(=O)CCCCCC/C=C/[C@H](C(=O)N[C@@H](Cc1ccc(CCCC(C)C)cc1)C(=O)O)[C@@](O)(CC(=O)O)C(=O)O [Compound 22]	14	> 1000
CCCCCCCC(=O)CCCCCC/C=C/[C@H](C(=O)N[C@@H](Cc1ccc(OC)c(OC)c1)C(=O)O)[C@@](O)(CC(=O)O)C(=O)O [Compound 23]	17	> 1000
CCCCCCCC(=O)CCCCCC/C=C/[C@H](C(=O)N[C@@H](Cc1ccc(Oc2ccc(Cl)cc2)cc1)C(=O)O)[C@@](O)(CC(=O)O)C(=O)O [Compound 24]	11	> 1000
CCCCCCCC(=O)CCCCCC/C=C/[C@H](C(=O)N[C@@H](Cc1ccc(Oc2ccc(F)cc2)cc1)C(=O)O)[C@@](O)(CC(=O)O)C(=O)O [Compound 25]	9	> 1000
CCCCCCCC(=O)CCCCCC/C=C/[C@H](C(=O)N[C@@H](Cc1ccc(CCCCC)cc1)C(=O)O)[C@@](O)(CC(=O)O)C(=O)O [Compound 26]	17	> 1000
CCCCCCCC(=O)CCCCCC/C=C/[C@H](C(=O)N[C@@H](Cc1ccc(-c2cccnc2)cc1)C(=O)O)[C@@](O)(CC(=O)O)C(=O)O [Compound 27]	10	> 1000
CCCCCCCC(=O)CCCCCC/C=C/[C@H](C(=O)N[C@@H](Cc1ccc(-c2ccc(Cl)cc2)cc1)C(=O)O)[C@@](O)(CC(=O)O)C(=O)O [Compound 28]	9	> 1000
CCCCCCCC(=O)CCCCCC/C=C/[C@H](C(=O)N[C@@H](Cc1ccc(-c2ccc(F)cc2)cc1)C(=O)O)[C@@](O)(CC(=O)O)C(=O)O [Compound 29]	6	> 1000
CCCCCCCC(=O)CCCCCC/C=C/[C@H](C(=O)N[C@@H](Cc1ccc(-c2ccc(F)cc2F)cc1)C(=O)O)[C@@](O)(CC(=O)O)C(=O)O [Compound 30]	8	> 1000
CCCCCCCC(=O)CCCCCC/C=C/[C@H](C(=O)N[C@@H](Cc1ccc(-c2ccsc2)cc1)C(=O)O)[C@@](O)(CC(=O)O)C(=O)O [Compound 31]	12	> 1000
CCCCCCCC(=O)CCCCCC/C=C/[C@H](C(=O)NC(Cc1ccc(C(F)(F)F)cc1)C(=O)O)[C@@](O)(CC(=O)O)C(=O)O (some centres unmarked) [Compound 32]	68	> 1000
CCCCCCCC(=O)CCCCCC/C=C/[C@H](C(=O)NC(Cc1ccc(C#N)cc1)C(=O)O)[C@@](O)(CC(=O)O)C(=O)O (some centres unmarked) [Compound 33]	12	> 1000
